Experimental findings from ChEMBL document CHEMBL1201862, “PubChem BioAssay data set” (2004) are described below.

The structures appear in SMILES notation.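 48-hour exposure; five concentrations; linearly interpolated endpoints. GI50 is the concentration that inhibits growth by half.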 Active and inactive are the calls of the source. Cut-off read from the data, not from the text of the source: active = GI50 up to about 1.1 µM and inactive = higher.

Test systems include CCRF-CEM; UACC-62; RPMI-8226; MOLT-4; SK-MEL-28; Malme-3M; LXFL 529; SF-539; UO-31; SK-OV-3; SW-620; NCI-H23; A549; SF-295; OVCAR-3; A498; OVCAR-5; MDA-MB-435; Hs-578T; DU-145.
Common to all, as to assay: inhibition of tumour cell growth, NCI panel, 48 h

Take `COc1ccc(-c2cc(O)c3cc4c(cc3n2)OCO4)c(OC)c1`: the GI50 in the assay on CCRF-CEM is 34.4 µM (inactive); in the assay with UACC-62 it was 28.3 µM (inactive); with RPMI-8226, 28.3 µM (inactive); in the assay on MOLT-4 it was 30.2 µM (inactive); with SK-MEL-28, 32.9 µM (inactive); with Malme-3M, 25.2 µM (inactive). Moreover, the GI50 in the assay on LXFL 529 is 45.7 µM (inactive); in the assay with SF-539, 51.3 µM (inactive); in the assay with UO-31, 57.3 µM (inactive); in the assay with SK-OV-3 it was 87.3 µM (inactive); in the assay on SW-620 it was 47.3 µM (inactive); in the assay on NCI-H23 it was 70.3 µM (inactive). Also, in the assay with A549, the GI50 was 41.8 µM (inactive).
As to `O=C1CCCCC/C=C2/CC[C@H](Sc3ccccc3)[C@@H]12`, the GI50 in the assay with CCRF-CEM is 6.27 µM (inactive); in the assay with UACC-62, > 100 µM (inactive); in the assay on RPMI-8226, > 100 µM (inactive); in the assay on MOLT-4, 31.4 µM (inactive); in the assay on SK-MEL-28, > 100 µM (inactive); with Malme-3M, > 100 µM (inactive). Besides, the GI50 with LXFL 529 is > 100 µM (inactive); in the assay with UO-31, 50 µM (inactive); in the assay on SK-OV-3, 82.2 µM (inactive); in the assay on SW-620 it was > 100 µM (inactive); in the assay on NCI-H23, 83 µM (inactive); in the assay on A549 it was 34.3 µM (inactive). Also, the GI50 with SF-295 was 40.6 µM (inactive).
On to `COC(=O)CCc1cccnc1/C=N/O`, for which the GI50 in the assay on CCRF-CEM was 96.4 µM (inactive); in the assay on OVCAR-3 it was > 100 µM (inactive); in the assay with UACC-62, > 100 µM (inactive); with MOLT-4, > 100 µM (inactive); with SK-MEL-28, > 100 µM (inactive); in the assay on A498, > 100 µM (inactive). In addition, the GI50 with Malme-3M, with LXFL 529, in the assay with SF-539, with OVCAR-5, in the assay with UO-31 and with SK-OV-3 was > 100 µM (inactive) throughout. Moreover, the GI50 with SW-620 is 87.5 µM (inactive); with NCI-H23 it was > 100 µM (inactive); in the assay on A549, > 100 µM (inactive); in the assay with SF-295, > 100 µM (inactive).
As for `O=C(CN1CCCCC1)N1CCc2c([nH]c3ccccc23)C1c1cccnc1` (stereo unspecified), the GI50 in the assay with CCRF-CEM, with OVCAR-3, in the assay on UACC-62, with RPMI-8226, in the assay on MOLT-4 and in the assay with SK-MEL-28 was > 100 µM (inactive) throughout. The GI50 in the assay on A498 was > 100 µM (inactive); in the assay with LXFL 529 it was > 100 µM (inactive); in the assay on SF-539, > 100 µM (inactive); in the assay with OVCAR-5, > 100 µM (inactive); in the assay on UO-31 it was 48.8 µM (inactive); with SK-OV-3, > 100 µM (inactive). In addition, the GI50 with SW-620, in the assay with NCI-H23, in the assay with A549 and in the assay with SF-295 was > 100 µM (inactive) in each case.
Regarding `Cn1nc(-c2ccccc2)c(C(=O)/C=C/c2ccc(Cl)cc2)c(N2CCCCC2)c1=O`, the GI50 is 2.18 µM (inactive) in the assay on CCRF-CEM; 2.2 µM (inactive) in the assay with UACC-62; 2.05 µM (inactive) in the assay on RPMI-8226; 1.53 µM (inactive) in the assay on MOLT-4; 3.78 µM (inactive) in the assay on SK-MEL-28; 1.8 µM (inactive) in the assay on LXFL 529. In addition, the GI50 with SF-539 is 1.61 µM (inactive); in the assay on UO-31, 1.65 µM (inactive); with SK-OV-3, 3.52 µM (inactive); in the assay with SW-620 it was 3.48 µM (inactive); in the assay on NCI-H23, 2.19 µM (inactive); with A549, 2.92 µM (inactive). In addition, the GI50 in the assay with SF-295 is 0.719 µM (active).
For `Cc1ccc(/C=C2\CCCC\C2=N\O)cc1`, the GI50 in the assay with CCRF-CEM is 45.4 µM (inactive); in the assay on OVCAR-3, > 100 µM (inactive); in the assay with UACC-62, > 100 µM (inactive); in the assay on MOLT-4, > 10 µM (inactive); in the assay on SK-MEL-28, > 100 µM (inactive); in the assay with A498, 37.7 µM (inactive). For the same molecule, the GI50 in the assay with LXFL 529 is 46.3 µM (inactive); in the assay with SF-539, 88.3 µM (inactive); in the assay with UO-31 it was 26.9 µM (inactive); with SK-OV-3, > 100 µM (inactive); in the assay on SW-620, > 100 µM (inactive); in the assay on NCI-H23, 47.3 µM (inactive). Moreover, the results for the GI50 with A549 and in the assay on SF-295 were 71.8 µM (inactive) and 74.3 µM (inactive), respectively.
Regarding `[N-]=[N+]=NC(CI)c1cn([C@H]2C[C@H](O)[C@@H](CO)O2)c(=O)[nH]c1=O` (stereo partly specified), the GI50 is > 100 µM (inactive) with CCRF-CEM; > 100 µM (inactive) in the assay on OVCAR-3; > 100 µM (inactive) with UACC-62; 51.5 µM (inactive) with RPMI-8226; > 100 µM (inactive) in the assay with MOLT-4; > 100 µM (inactive) with SK-MEL-28. Also, the GI50 in the assay on Malme-3M, in the assay on LXFL 529, with SF-539, with OVCAR-5, with UO-31 and with SK-OV-3 was > 100 µM (inactive) each time. The GI50 in the assay on SW-620 was > 100 µM (inactive); in the assay with NCI-H23 it was 90.4 µM (inactive); in the assay on A549, 41.5 µM (inactive); with SF-295, > 100 µM (inactive).
In the case of `CO[C@@H](c1ccccc1)[C@H](O)[C@](O)(c1ccccc1)P(=O)(OC)OC`, the GI50 with CCRF-CEM, in the assay with OVCAR-3, in the assay with MDA-MB-435, in the assay with UACC-62, with RPMI-8226 and in the assay on MOLT-4 was > 100 µM (inactive) throughout. Further, the GI50 in the assay with SK-MEL-28, with Hs-578T, with A498, in the assay on Malme-3M, in the assay on SF-539 and in the assay with DU-145 was > 100 µM (inactive) throughout. The GI50 with OVCAR-5, with UO-31, in the assay with SK-OV-3, in the assay on SW-620, in the assay on NCI-H23 and in the assay with A549 was > 100 µM (inactive) in each case. Moreover, the GI50 with SF-295 is > 100 µM (inactive).
Consider `[O-][S+]1c2ccc(Cl)cc2CC(SSC2Cc3cc(Cl)ccc3[S+]([O-])c3ccccc32)c2ccccc21` (stereo unspecified), for which the GI50 in the assay with CCRF-CEM, in the assay on OVCAR-3, in the assay on UACC-62, in the assay with RPMI-8226, with MOLT-4 and in the assay on SK-MEL-28 was > 100 µM (inactive) throughout. In addition, the GI50 in the assay on Malme-3M, in the assay on LXFL 529, in the assay on SF-539, with OVCAR-5, in the assay on UO-31 and in the assay with SK-OV-3 was > 100 µM (inactive) each time. Also, the GI50 with SW-620, in the assay on NCI-H23, with A549 and in the assay with SF-295 was > 100 µM (inactive) in each case.
